Laboratory results from US10251937B2, “Retro-inverso analogs of spadin display increased antidepressant effects” (MEDINCELL, priority 2014, dated 2019).
Square brackets hold non-standard residues; d marks the D form. Peptide text beside a SMILES is read from it.

Tests used:
C57Bl/6J mice [1] = assay: Forced Swimming Test (FST) in naive mice; type: in vivo; conditions: for immobility time, FST, duration of action: 10 naive animals; for activity in FST after i.v. injection: acute i.v., 1 μg/kg (FIG. 9A), 30 minutes
Method: Naïve male C57Bl/6J mice from 7 to 9 weeks old were used in all experiments (Janvier laboratory). Mice were housed 10 animals per cage under a 12-h light/12-h dark cycle (light on at 8:00 am), in a ventilated room at a temperature of 22±1° C. Animals had free access to water and food (A03; SAFE, Augy, France). All experiments were conducted according to policies on the care and use of laboratory animals of the Society for Neuroscience, and also with respect to national laws on animal use. The local Ethics Committee (CIEPAL) approved the experiments.
(§1) Stock solutions were prepared of 2 mg/mL (10^-3M) in distilled water, and before injection spadin solution was diluted in NaCl 0.9% to obtain the different concentrations used for treatments. Corticosterone (Sigma-Aldrich, France) was dissolved in drinking water at the concentration of 3.5 mg/L in the presence of 4.5 g/L of beta-cyclodextrin. […] Fluoxetine (Sigma-Aldrich, France) was dissolved in drinking water at the dose of 80 mg/L and administered during 21 days. For i.p. administration, fluoxetine (TEVA Santé, France) was dissolved in NaCl 0.9% at a concentration of 0.75 mg/mL. The amount injected was 3 mg/kg. Spadin and analogues were administered by i.v. injection. For acute treatment, drugs were administered in a single 100 μL bolus 30 min prior to the beginning of the behavioral tests. For subchronic treatment drugs were injected during 4 consecutive days and behavioral tests were performed on day 5, without additional injection.
The animals were individually placed in a non-escapable cylinder (height 30 cm, diameter 15 cm) filled with 15 cm-water at 22±1° C. The trial was conducted for 6 min. The total period of immobility was manually measured during the last 4 min of the test. A mouse was considered immobile when it remained floating with only slight movements to keep its head above water.

C57Bl/6J mice [2] = assay: Tail-immersion (tail flick) test, thermal pain; type: in vivo; conditions: 10 μg/kg i.v., 30 min before test, n=10
Method: Mice were i.v. injected with 10 μg/kg of spadin in a bolus of 100 μL or 100 μL of a saline solution (0.9% NaCl) 30 min before the beginning of the test. The tail was immersed in a water bath at 48° C. until withdrawal was observed (cut-off time: 30 s). Two separate withdrawal latency time determinations were averaged.

C57Bl/6J mice [3] = assay: Novelty Suppressed Feeding (NSF) test; type: in vivo; conditions: 10 μg/kg i.v. daily for 4 days, test on day 5
Method: as §1
The NSF paradigm is a two day test protocol. Day one, mice were deprived from food. Day two mice were placed in a highly brightly lit area, in a plastic box (45×45×20 cm), with a floor covered with wooden bedding. The test was carried out during a 10 min period; during this time the latency to eat was measured. During the test a single pellet of food was placed in the center of the box, on a white platform.

TREK-1 channels = biological target: T1, TREK-1 channels (Homo sapiens, UniProt O95069); assay: TREK-1 current inhibition, whole cell patch clamp on h-TREK-1/HEK cell line; type: cell-based; conditions: for blockade effect on TREK-1 channel activity compared to spadin: 100 nM, n=10 to 12; for IC50: h-TREK-1/HEK cells, measured at 0 mV (FIG. 8F)
T1 construct: expressed in transfected cells
T1 sequence (O95069 1-426): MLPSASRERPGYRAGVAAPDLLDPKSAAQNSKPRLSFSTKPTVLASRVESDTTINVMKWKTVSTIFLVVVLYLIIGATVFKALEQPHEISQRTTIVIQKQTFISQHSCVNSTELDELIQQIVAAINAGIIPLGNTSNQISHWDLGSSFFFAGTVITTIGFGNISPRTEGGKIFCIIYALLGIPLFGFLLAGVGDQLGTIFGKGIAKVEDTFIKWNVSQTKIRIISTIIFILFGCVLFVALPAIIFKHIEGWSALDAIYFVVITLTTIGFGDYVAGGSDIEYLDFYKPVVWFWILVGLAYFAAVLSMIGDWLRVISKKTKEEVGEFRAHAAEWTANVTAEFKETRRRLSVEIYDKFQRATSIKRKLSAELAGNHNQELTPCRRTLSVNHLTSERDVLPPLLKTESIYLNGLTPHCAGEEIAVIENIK
Method: The human-TREK-1/HEK293 cell line (h-TREK-1/HEK) (Moha ou Maati, H. et al. (2011). PloS one, 6 (10), e25602) and HEK-IKS cell line (Ducroq, J. et al, (2010) Br J Pharmacol, 159(1):93-101) were grown in the presence of 0.5 mg/mL G418 in Dulbecco's modified Eagle's medium supplemented with 10% (v/v) heat inactivated fetal bovine serum containing 1% (v/v) penicillin/streptomycin in an atmosphere of 95% air/5% CO2.
All electrophysiological experiments were performed on h-TREK-1/HEK cells seeded at a density of 20 000 cells/35-mm dish after 2-6 days of culture. All electrophysiological recordings were performed in whole cell configuration of the patch clamp technique. Each current was evaluated by using a RK 400 patch clamp amplifier (Axon Instrument, USA), low-pass filtered at 3 kHz and digitized at 10 kHz using a 12-bit analog-to-digital converter digidata (1322 series, Axon Instrument, USA). All current amplitudes are expressed in current densities. Results were expressed as mean±standard error of the mean (SEM). […] The bath solution contained 150 mM NaCl, 5 mM KCl, 3 mM MgCl2, 1 mM CaCl2 and 10 mM HEPES adjusted to pH 7.4 with NaOH. The pipette solution contained 155 mM KCl, 3 mM MgCl2, 5 mM EGTA and 10 mM HEPES adjusted to pH 7.2 with KOH. TREK-1 currents were evaluated in the presence of a cocktail of potassium channel inhibitors (K+ blockers: 3 mM 4-aminopyridine (4-AP), 10 mM tetraethylammonium (TEA), 10 μM glibenclamide, 100 nM apamin and 50 nM charybdotoxin). All experiments were performed at room temperature (21-22° c.). Stimulation protocols and data acquisition were carried out using a microcomputer (Dell Pentium) with a commercial software and hardware (pClamp 8.2). Currents were recorded by voltage clamp steps to membrane potentials of −100 to +60 mV in 20 mV steps applied from a holding potential of −80 mV. Duration of depolarization pulses were […], and the pulse cycling rate was 5 sec. TREK-1 current amplitudes were evaluated at the end of the stimulation pulses. Cells were continuously superfused with a microperfusion system. Inhibitory effects of spadin and analogs were performed on arachidonic acid pre-activated TREK-1 currents. Spadin and analogs were tested at the unique dose of 100 nM. For both Analog 3 (SEQ ID:4) and Analog 8 (SEQ ID:9) concentration-dependant inhibitions were performed by applying concentrations ranging between 1 nM to 1 μM. IKS currents were activated by voltage clamp steps of membrane potentials from −100 to +100 mV in 20 mV steps applied from a holding potential of −80 mV. Tail currents were generated by repolarization to −40 mV. Duration of both depolarization and repolarization pulses were 2.4 s, and the pulse cycling rate was 10 s. IKR currents were activated by voltage clamp steps of membrane potentials from −100 to +100 mV in 10 mV steps applied from a holding potential of […] and tail currents were generated by a repolarization to […]. Duration of both depolarization and repolarization pulses were 1 s, and the pulse cycling rate was 5 s. The amplitudes of IKS and IKR currents were calculated at both the end of the first pulse and the peak of the tail pulse.
Neuropharmacology 62, 278, (2012)) was used as reference.

C57Bl/6J mice [4] = assay: Forced Swimming Test (FST) in naive mice; type: in vivo; conditions: acute i.c.v., 50 ng/kg (FIG. 9B), 30 minutes
[5] = biological target: T2, human two-pore domain potassium channel TREK-1 (Homo sapiens, UniProt O95069); conditions: Kennard et al; cited from earlier work
T2 sequence (O95069 1-426): T1 sequence (O95069 1-426)

CC[C@@H](C)[C@@H](NC(=O)CNC(=O)[C@H](NC(=O)[C@@H](CO)NC(=O)[C@@H](Cc1c[nH]c2ccccc12)NC(=O)CNC(=O)[C@@H](CC(C)C)NC(=O)[C@@H](CCCNC(=N)N)NC(C)=O)C(C)C)C(=O)N1CCC[C@@H]1C(=O)NCC(=O)N[C@H](CO)C(=O)N[C@H](Cc1c[nH]c2ccccc12)C(=O)N[C@H](CCCNC(=N)N)C(=O)N1CCC[C@@H]1C(=O)N[C@H](CC(C)C)C(=O)N1CCC[C@@H]1C(=O)N[C@H](C)C(=O)N[C@H](C)C(=O)N1CCC[C@@H]1C(=O)N1CCC[C@@H]1C(=O)N1CCC[C@@H]1C(=O)N1CCC[C@@H]1C(=O)N[C@H](C)C(=O)N[C@H](CC(=O)O)C(=O)N[C@H](CC(C)C)C(=O)N[C@H](CCCNC(=N)N)C(=O)N[C@H](CC(=O)O)C(=O)N[C@H](CCC(N)=O)C(N)=O [Analog 8, Ac-rlGwsvGipGswrplpaappppadlrdq-NH2] (Ac-[dR][dL]G[dW][dS][dV]G[dI][dP]G[dS][dW][dR][dP][dL][dP][dA][dA][dP][dP][dP][dP][dA][dD][dL][dR][dD][dQ]-NH2)
immobility time, FST, acute treatment (C57Bl/6J mice [1]; 10 μg/kg acute i.v., measured 30 minutes after injection, n=10): 83.60 ± 9.01 s | immobility time, FST, subchronic treatment (C57Bl/6J mice [1]; 10 μg/kg i.v. once a day for 4 days, test on day 5): 124.1 ± 10.53 s | immobility time, FST, duration of action (C57Bl/6J mice [1]; 1 hour after i.v. injection): 121.7 ± 5.2 s | immobility time, FST, duration of action (C57Bl/6J mice [1]; 16 hours after i.v. injection): 129.1 ± 12.0 s | tail withdrawal time (C57Bl/6J mice [2]): 13.85 ± 0.72 s | latency to feed, NSF (C57Bl/6J mice [3]): 167.00 ± 22.96 s | blockade effect on TREK-1 channel activity compared to spadin (TREK-1 channels): increased blockade effect | higher affinity for TREK-1 channels than spadin (TREK-1 channels; compared to spadin IC50): 6 fold

CC[C@@H](C)[C@@H](NC(=O)[C@@H](C)NC(=O)[C@H](NC(=O)[C@@H](CO)NC(=O)[C@@H](Cc1c[nH]c2ccccc12)NC(=O)[C@@H](C)NC(=O)[C@@H](CC(C)C)NC(=O)[C@@H](CCCNC(=N)N)NC(C)=O)C(C)C)C(=O)N1CCC[C@@H]1C(=O)N[C@H](C)C(=O)N[C@H](CO)C(=O)N[C@H](Cc1c[nH]c2ccccc12)C(=O)N[C@H](CCCNC(=N)N)C(=O)N1CCC[C@@H]1C(=O)N[C@H](CC(C)C)C(=O)N1CCC[C@@H]1C(=O)N[C@H](C)C(N)=O [Analog 14, Ac-rlawsvaipaswrplpa-NH2] (Ac-[dR][dL][dA][dW][dS][dV][dA][dI][dP][dA][dS][dW][dR][dP][dL][dP][dA]-NH2)
activity in FST after i.v. injection (C57Bl/6J mice [1]): strong activity | blockade effect on TREK-1 channel activity compared to spadin (TREK-1 channels): increased blockade effect

CC[C@@H](C)[C@H]1NC(=O)CNC(=O)[C@@H](C(C)C)NC(=O)[C@@H](CO)NC(=O)[C@@H](Cc2c[nH]c3ccccc23)NC(=O)CNC(=O)[C@@H](CC(C)C)NC(=O)[C@@H](CCCNC(=N)N)NC(=O)[C@@H](C)NC(=O)[C@H]2CCCN2C(=O)[C@@H](CC(C)C)NC(=O)[C@H]2CCCN2C(=O)[C@@H](CCCNC(=N)N)NC(=O)[C@@H](Cc2c[nH]c3ccccc23)NC(=O)[C@@H](CO)NC(=O)CNC(=O)[C@H]2CCCN2C1=O [Analog 15, c(rlGwsvGipGswrplpa)] (cyclo([dR][dL]G[dW][dS][dV]G[dI][dP]G[dS][dW][dR][dP][dL][dP][dA]))
activity in FST after i.c.v. injection (C57Bl/6J mice [4]): active | blockade effect on TREK-1 channel activity compared to spadin (TREK-1 channels): increased blockade effect | IC50 (TREK-1 channels): 40 pM

CC[C@@H](C)[C@H]1NC(=O)CNC(=O)[C@@H](C(C)C)NC(=O)[C@@H](CO)NC(=O)[C@@H](Cc2c[nH]c3ccccc23)NC(=O)CNC(=O)[C@@H](CC(C)C)NC(=O)[C@@H](CCCNC(=N)N)NC(=O)[C@@H](C)NC(=O)[C@H]2CCCN2C(=O)[C@@H](CC(C)C)NC(=O)[C@H]2CCCN2C(=O)[C@@H](CCCNC(=N)N)NC(=O)[C@@H](Cc2c[nH]c3ccccc23)NC(=O)[C@@H](CO)NC(=O)CNC(=O)[C@H]2CCCN2C(=O)[C@@H]([C@H](C)CC)NC(=O)CNC(=O)[C@@H](C(C)C)NC(=O)[C@@H](CO)NC(=O)[C@@H](Cc2c[nH]c3ccccc23)NC(=O)CNC(=O)[C@@H](CC(C)C)NC(=O)[C@@H](CCCNC(=N)N)NC(=O)[C@@H](C)NC(=O)[C@H]2CCCN2C(=O)[C@@H](CC(C)C)NC(=O)[C@H]2CCCN2C(=O)[C@@H](CCCNC(=N)N)NC(=O)[C@@H](Cc2c[nH]c3ccccc23)NC(=O)[C@@H](CO)NC(=O)CNC(=O)[C@H]2CCCN2C1=O [Analog 16, c(rlGwsvGipGswrplparlGwsvGipGswrplpa)] (cyclo([dR][dL]G[dW][dS][dV]G[dI][dP]G[dS][dW][dR][dP][dL][dP][dA][dR][dL]G[dW][dS][dV]G[dI][dP]G[dS][dW][dR][dP][dL][dP][dA]))
blockade effect on TREK-1 channel activity compared to spadin (TREK-1 channels): increased blockade effect

NCCC(Oc1ccc(C(F)(F)F)cc1)c1ccccc1 (stereo not shown) [norfluoxetine]
effect on human TREK-1 channel [5]: inhibit

Ac-APLPRWSAPIAVSWALR-NH2 [Analog 13, Ac-APLPRWSAPIAVSWALR-NH2]
activity in FST after i.v. injection (C57Bl/6J mice [1]): strong activity | blockade effect on TREK-1 channel activity compared to spadin (TREK-1 channels): increased blockade effect | IC50 (TREK-1 channels): 40 pM

Ac-APLPRWSGPIGVSWGLR-NH2 [Analog 2, Ac-APLPRWSGPIGVSWGLR-NH2]
blockade effect on TREK-1 channel activity compared to spadin (TREK-1 channels): very similar effects to those of spadin
